Laboratory results taken from patent US9029377B2, “Platelet-activating factor receptor antagonists” (Merck Sharp & Dohme Corp., priority 2009, dated 2015).

molecular target: PAFR (Homo sapiens, UniProt P25105); assay: PAF Binding Assay (PAFR binding)
Sequence (P25105 whole entry): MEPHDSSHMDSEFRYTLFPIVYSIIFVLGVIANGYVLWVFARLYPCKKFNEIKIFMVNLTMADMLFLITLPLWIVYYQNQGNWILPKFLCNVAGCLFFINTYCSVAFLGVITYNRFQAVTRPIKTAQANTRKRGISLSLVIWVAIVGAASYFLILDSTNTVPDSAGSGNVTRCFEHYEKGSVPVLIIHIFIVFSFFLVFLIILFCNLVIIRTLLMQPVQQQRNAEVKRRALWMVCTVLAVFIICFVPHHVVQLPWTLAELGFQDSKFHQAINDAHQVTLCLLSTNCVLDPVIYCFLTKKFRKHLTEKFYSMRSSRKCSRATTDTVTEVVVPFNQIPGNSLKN

Row | Structure (SMILES) | IC50 [nM]
1 | O=S(=O)(N[C@H]1CCC[C@@H](n2cnnc2)C1)c1ccc(-c2noc(C3CC3)n2)cc1C1CC1 [Compound 2Ka, 2-cyclopropyl-4-(5-cyclopropyl-1,2,4-oxadiazol-3-yl)-N-[(1S,3R)-3-(4H-1,2,4-triazol-4-yl)cyclohexyl]benzenesulfonamide] | 2.7
2 | CC(F)(F)c1nc(-c2ccc(S(=O)(=O)N[C@H]3CCC[C@@H](n4cnnc4)C3)c(C3CC3)c2)no1 [Compound 2Kc, 2-cyclopropyl-4-[5-(1,1-difluoroethyl)-1,2,4-oxadiazol-3-yl]-N-[(1S,3R)-3-(4H-1,2,4-triazol-4-yl)cyclohexyl]benzenesulfonamide] | 9.9
3 | O=S(=O)(N[C@H]1CCC[C@@H](n2cnnc2)C1)c1ccc(-c2noc(C3(O)CC3)n2)cc1C1CC1 [Compound 2Ke, 2-cyclopropyl-4-[5-(1-hydroxycyclopropyl)-1,2,4-oxadiazol-3-yl]-N-[(1S,3R)-3-(4H-1,2,4-triazol-4-yl)cyclohexyl]benzenesulfonamide] | 337
4 | O=S(=O)(N[C@H]1CCC[C@@H](n2cnnc2)C1)c1ccc(-c2noc(C3CCC3)n2)cc1C1CC1 [Compound 2Kf, 4-(5-cyclobutyl-1,2,4-oxadiazol-3-yl)-2-cyclopropyl-N-[(1S,3R)-3-(4H-1,2,4-triazol-4-yl)cyclohexyl]benzenesulfonamide] | 2.8
5 | Cc1nncn1[C@H]1C[C@@H](NS(=O)(=O)c2ccc(-c3noc(C4CC4)n3)cc2C2CC2)CC(F)(F)C1 [Compound 2Lj, 2-cyclopropyl-4-(5-cyclopropyl-1,2,4-oxadiazol-3-yl)-N-[(1R,5S)-3,3-difluoro-5-(3-methyl-4H-1,2,4-triazol-4-yl)cyclohexyl]benzenesulfonamide] | 1.3
6 | O=S(=O)(N[C@H]1CCC[C@@H](n2cnnc2)C1)c1cc(F)cc(F)c1 [Compound 2Ma, 3,5-difluoro-N-[(1S,3R)-3-(4H-1,2,4-triazol-4-yl)cyclohexyl]benzenesulfonamide] | 2900
7 | CCOc1ccc(S(=O)(=O)N[C@H]2CCC[C@@H](n3cnnc3)C2)cc1 [Compound 2Maa, 4-ethoxy-N-[(1S,3R)-3-(4H-1,2,4-triazol-4-yl)cyclohexyl]benzenesulfonamide] | 39
8 | O=S(=O)(N[C@H]1CCC[C@@H](n2cnnc2)C1)c1ccc(Oc2ncc(C(F)(F)F)cc2Cl)cc1 [Compound 2Mab, 4-{[3-chloro-5-(trifluoromethyl)pyridin-2-yl]oxy}-N-[(1S,3R)-3-(4H-1,2,4-triazol-4-yl)cyclohexyl]benzenesulfonamide] | 66
9 | O=S(=O)(N[C@H]1CCC[C@@H](n2cnnc2)C1)c1ccc(OCCCC(F)(F)F)cc1 [Compound 2Mac, N-[(1S,3R)-3-(4H-1,2,4-triazol-4-yl)cyclohexyl]-4-(4,4,4-trifluorobutoxy)benzenesulfonamide] | 8.3
10 | CCCCCc1ccc(S(=O)(=O)N[C@H]2CCC[C@@H](n3cnnc3)C2)cc1 [Compound 2Mah, 4-pentyl-N-[(1S,3R)-3-(4H-1,2,4-triazol-4-yl)cyclohexyl]benzenesulfonamide] | 13
11 | O=S(=O)(N[C@H]1CCC[C@@H](n2cnnc2)C1)c1cccc(OC(F)(F)F)c1 [Compound 2Mc, N-[(1S,3R)-3-(4H-1,2,4-triazol-4-yl)cyclohexyl]-3-(trifluoromethoxy)benzenesulfonamide] | 410
12 | O=S(=O)(N[C@H]1CCC[C@@H](n2cnnc2)C1)c1cccc(OC(F)F)c1 [Compound 2Md, 3-(difluoromethoxy)-N-[(1S,3R)-3-(4H-1,2,4-triazol-4-yl)cyclohexyl]benzenesulfonamide] | 323
13 | Cc1cc(C)cc(S(=O)(=O)N[C@H]2CCC[C@@H](n3cnnc3)C2)c1 [Compound 2Me, 3,5-dimethyl-N-[(1S,3R)-3-(4H-1,2,4-triazol-4-yl)cyclohexyl]benzenesulfonamide] | 194
14 | CC(C)(C)c1cccc(S(=O)(=O)N[C@H]2CCC[C@@H](n3cnnc3)C2)c1 [Compound 2Mf, 3-tert-butyl-N-[(1S,3R)-3-(4H-1,2,4-triazol-4-yl)cyclohexyl]benzenesulfonamide] | 157
15 | O=S(=O)(N[C@H]1CCC[C@@H](n2cnnc2)C1)c1cccc(-c2ccccc2)c1 [Compound 2Mg, N-[(1S,3R)-3-(4H-1,2,4-triazol-4-yl)cyclohexyl]biphenyl-3-sulfonamide] | 30
16 | O=S(=O)(N[C@H]1CCC[C@@H](n2cnnc2)C1)c1cc(Br)cc(C(F)(F)F)c1 [Compound 2Mi, 3-bromo-N-[(1S,3R)-3-(4H-1,2,4-triazol-4-yl)cyclohexyl]-5-(trifluoromethyl)benzenesulfonamide] | 165
17 | O=S(=O)(N[C@H]1CCC[C@@H](n2cnnc2)C1)c1ccc(-c2noc(C3CC3)n2)cc1 [Compound 2Ml, 4-(5-cyclopropyl-1,2,4-oxadiazol-3-yl)-N-[(1S,3R)-3-(4H-1,2,4-triazol-4-yl)cyclohexyl]benzenesulfonamide] | 243
18 | CCc1ccc(S(=O)(=O)N[C@H]2CCC[C@@H](n3cnnc3)C2)cc1-c1ccccc1 [Compound 2Mm, 6-ethyl-N-[(1S,3R)-3-(4H-1,2,4-triazol-4-yl)cyclohexyl]biphenyl-3-sulfonamide] | 26
19 | CCc1ccc(S(=O)(=O)N[C@H]2CCC[C@@H](n3cnnc3)C2)cc1-c1cccnc1OC [Compound 2Mn, 4-ethyl-3-(2-methoxypyridin-3-yl)-N-[(1S,3R)-3-(4H-1,2,4-triazol-4-yl)cyclohexyl]benzenesulfonamide] | 63

Row | Structure (SMILES) | IC50 [nM]
20 | O=S(=O)(N[C@H]1CCC[C@@H](n2cnnc2)C1)c1cc(F)c(-c2ccc(OC(F)(F)F)cc2)cc1F [Compound 2Mo, 2,5-difluoro-N-[(1S,3R)-3-(4H-1,2,4-triazol-4-yl)cyclohexyl]-4′-(trifluoromethoxy)biphenyl-4-sulfonamide] | 12
21 | O=S(=O)(N[C@H]1CCC[C@@H](n2cnnc2)C1)c1ccc(OC(F)(F)F)cc1 [Compound 2Mu, N-[(1S,3R)-3-(4H-1,2,4-triazol-4-yl)cyclohexyl]-4-(trifluoromethoxy)benzenesulfonamide] | 164
22 | O=S(=O)(N[C@H]1CCC[C@@H](n2cnnc2)C1)c1ccc(Oc2ccccc2)cc1 [Compound 2Mv, 4-phenoxy-N-[(1S,3R)-3-(4H-1,2,4-triazol-4-yl)cyclohexyl]benzenesulfonamide] | 51
23 | CCCCOc1ccc(S(=O)(=O)N[C@H]2CCC[C@@H](n3cnnc3)C2)cc1 [Compound 2Mw, 4-butoxy-N-[(1S,3R)-3-(4H-1,2,4-triazol-4-yl)cyclohexyl]benzenesulfonamide] | 8.3
24 | COc1ccc(S(=O)(=O)N[C@H]2CCC[C@@H](n3cnnc3)C2)cc1OC [Compound 2Mx, 3,4-dimethoxy-N-[(1S,3R)-3-(4H-1,2,4-triazol-4-yl)cyclohexyl]benzenesulfonamide] | 600
25 | COc1ccc(S(=O)(=O)N[C@H]2CCC[C@@H](n3cnnc3)C2)c(OC)c1 [Compound 2My, 2,4-dimethoxy-N-[(1S,3R)-3-(4H-1,2,4-triazol-4-yl)cyclohexyl]benzenesulfonamide] | 210
26 | CC(C)Oc1ccc(S(=O)(=O)N[C@H]2CCC[C@@H](n3cnnc3)C2)cc1 [Compound 2Mz, 4-isopropoxy-N-[(1S,3R)-3-(4H-1,2,4-triazol-4-yl)cyclohexyl]benzenesulfonamide] | 25
27 | Cc1nncn1[C@@H]1CCC[C@H](NS(=O)(=O)c2ccc(OCCCC(F)(F)F)cc2)C1 [Compound 2Nac, N-[(1S,3R)-3-(3-methyl-4H-1,2,4-triazol-4-yl)cyclohexyl]-4-(4,4,4-trifluorobutoxy)benzenesulfonamide] | 4.7
28 | Cc1nncn1[C@@H]1CCC[C@H](NS(=O)(=O)c2ccc(OCCCCF)cc2)C1 [Compound 2Nad, 4-(4-fluorobutoxy)-N-[(1S,3R)-3-(3-methyl-4H-1,2,4-triazol-4-yl)cyclohexyl]benzenesulfonamide] | 11
29 | CCCCOc1cc(F)c(S(=O)(=O)N[C@H]2CCC[C@@H](n3cnnc3C)C2)cc1F [Compound 2Nae, 4-butoxy-2,5-difluoro-N-[(1S,3R)-3-(3-methyl-4H-1,2,4-triazol-4-yl)cyclohexyl]benzenesulfonamide] | 5.4
30 | Cc1nncn1[C@@H]1CCC[C@H](NS(=O)(=O)c2ccc(-c3noc(C4CC4)n3)cc2)C1 [Compound 2Nl, 4-(5-cyclopropyl-1,2,4-oxadiazol-3-yl)-N-[(1S,3R)-3-(3-methyl-4H-1,2,4-triazol-4-yl)cyclohexyl]benzenesulfonamide] | 9.6
31 | Cc1nncn1[C@@H]1CCC[C@H](NS(=O)(=O)c2ccc(C(C)(C)C)cc2)C1 [Compound 2Np, 4-tert-butyl-N-[(1S,3R)-3-(3-methyl-4H-1,2,4-triazol-4-yl)cyclohexyl]benzenesulfonamide] | 51
32 | Cc1nncn1[C@@H]1CCC[C@H](NS(=O)(=O)c2ccc(C(C)C)cc2)C1 [Compound 2Nq, 4-isopropyl-N-[(1S,3R)-3-(3-methyl-4H-1,2,4-triazol-4-yl)cyclohexyl]benzenesulfonamide] | 28
33 | Cc1nncn1[C@@H]1CCC[C@H](NS(=O)(=O)c2ccc(-n3nccc3C3CC3)cc2)C1 [Compound 2Nr, 4-(5-cyclopropyl-1H-pyrazol-1-yl)-N-[(1S,3R)-3-(3-methyl-4H-1,2,4-triazol-4-yl)cyclohexyl]benzenesulfonamide] | 56
34 | Cc1nncn1[C@@H]1CCC[C@H](NS(=O)(=O)c2ccc(-n3ccc(C4CC4)n3)cc2)C1 [Compound 2Ns, 4-(3-cyclopropyl-1H-pyrazol-1-yl)-N-[(1S,3R)-3-(3-methyl-4H-1,2,4-triazol-4-yl)cyclohexyl]benzenesulfonamide] | 30
35 | Cc1cn(-c2ccc(S(=O)(=O)N[C@H]3CCC[C@@H](n4cnnc4C)C3)cc2)cn1 [Compound 2Nt, 4-(4-methyl-1H-imidazol-1-yl)-N-[(1S,3R)-3-(3-methyl-4H-1,2,4-triazol-4-yl)cyclohexyl]benzenesulfonamide] | 870
36 | CCCCOc1ccc(S(=O)(=O)N[C@H]2CCC[C@@H](n3cnnc3C)C2)cc1 [Compound 2Nw, 4-butoxy-N-[(1S,3R)-3-(3-methyl-4H-1,2,4-triazol-4-yl)cyclohexyl]benzenesulfonamide] | 2.8
37 | CCCCOc1ccc(S(=O)(=O)N[C@H]2CCC[C@@H](n3cnnc3C3CC3)C2)cc1F [Compound 2Oaf, 4-butoxy-N-[(1S,3R)-3-(3-cyclopropyl-4H-1,2,4-triazol-4-yl)cyclohexyl]-3-fluorobenzenesulfonamide] | 1.7
